Data published in PubChem BioAssay AID192 (DTP/NCI, 2004).
Where “and” joins values, the source holds several entries; their conditions need not be identical. Identical values can stand only once. Inconclusive results and toxic doses are left out. How the source made its calls: active means survival T/C of 150% or more; inactive means T/C below 125% in these data.

Tested on: BDF1 mice, B16 melanoma ip, median survival T/C
Test: NCI In Vivo Anticancer Drug Screen. Data for tumor model B16 Melanoma (intraperitoneal) in B6D2F1 (BDF1) mice
Settings: endpoint: median survival time, higher = longer survival
Outline: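 Antitumor activity is assessed in mice bearing a transplanted tumor, with survival or tumor size compared against vehicle-dosed controls and expressed as T/C.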

[1] = dose: 5.0 mg/kg/injection, schedule: Q01DX009 (ip), vehicle: Klucel (hydroxypropylcellulose) (HPC)
[2] = dose: 25.0 mg/kg/injection, schedule: Q01DX009 (ip), vehicle: Klucel (hydroxypropylcellulose) (HPC)
[3] = dose: 50.0 mg/kg/injection, schedule: Q01DX009 (ip), vehicle: Klucel (hydroxypropylcellulose) (HPC)
[4] = dose: 100.0 mg/kg/injection, schedule: Q01DX009 (ip), vehicle: Klucel (hydroxypropylcellulose) (HPC)
[5] = dose: 200.0 mg/kg/injection, schedule: Q01DX009 (ip), vehicle: Klucel (hydroxypropylcellulose) (HPC)
[6] = dose: 400.0 mg/kg/injection, schedule: Q01DX009 (ip), vehicle: Klucel (hydroxypropylcellulose) (HPC)
[7] = dose: 5.0 mg/kg/injection, schedule: Q01DX009 (ip), vehicle: saline with Tween-80
[8] = dose: 10.0 mg/kg/injection, schedule: Q01DX009 (ip), vehicle: saline with Tween-80
[9] = dose: 100.0 mg/kg/injection, schedule: Q04DX003 (ip), vehicle: saline with Tween-80
[10] = dose: 200.0 mg/kg/injection, schedule: Q04DX003 (ip), vehicle: saline with Tween-80
[11] = dose: 400.0 mg/kg/injection, schedule: Q04DX003 (ip), vehicle: saline with Tween-80
[12] = dose: 100.0 mg/kg/injection, schedule: Q04DX003 (ip), vehicle: Klucel (hydroxypropylcellulose) (HPC)
[13] = dose: 200.0 mg/kg/injection, schedule: Q04DX003 (ip), vehicle: Klucel (hydroxypropylcellulose) (HPC)
[14] = dose: 400.0 mg/kg/injection, schedule: Q04DX003 (ip), vehicle: Klucel (hydroxypropylcellulose) (HPC)
[15] = dose: 100.0 mg/kg/injection, schedule: Q01DX009 (ip), vehicle: saline with Tween-80
[16] = dose: 200.0 mg/kg/injection, schedule: Q01DX009 (ip), vehicle: saline with Tween-80
[17] = dose: 50.0 mg/kg/injection, schedule: Q01DX009 (ip), vehicle: saline with Tween-80

Measured: T/C

C=C1C(C)C2C(Cc3ccccc3)NC(=O)C23C(OC(C)=O)C=CC(C)(O)C(=O)C(C)C/C=C/C3C1O (configuration not stated)
inactive: dose: 0.63 mg/kg/injection, schedule: Q01DX009 (ip), vehicle: Klucel (hydroxypropylcellulose) (HPC) 103 % of control | dose: 1.25 mg/kg/injection, schedule: Q01DX009 (ip), vehicle: Klucel (hydroxypropylcellulose) (HPC) 94 % of control and 114 % of control | dose: 2.5 mg/kg/injection, schedule: Q01DX009 (ip), vehicle: Klucel (hydroxypropylcellulose) (HPC) 100 % of control and 114 % of control | [1] 108 % of control and 112 % of control

Cc1ccc(NC(=S)NN)cc1C
inactive: [2] 100 % of control | [3] 96 % of control | [4] 96 % of control

CCCCCc1ccccc1
inactive: [4] 106 % of control | [5] 110 % of control | [6] 90 % of control

COc1ccc2c3c1OC1CC(O)C=CC31CCN(C)C2 (configuration not stated)
inactive: dose: 1.25 mg/kg/injection, schedule: Q01DX009 (ip), vehicle: saline with Tween-80 106 % of control | dose: 2.5 mg/kg/injection, schedule: Q01DX009 (ip), vehicle: saline 103 % of control | [7] 105 % of control and 113 % of control | [8] 95 % of control

O=C(Nc1ccc2ccccc2c1)c1ccc(Cl)cc1Cl
inactive: [9] 88 % of control | [10] 91 % of control | [11] 94 % of control

Cc1cc(NS(=O)(=O)c2ccc(N)cc2)no1
inactive: [12] 97 % of control | [13] 97 % of control | [14] 93 % of control

Nc1n[n+](-c2ccccc2)no1
inactive: dose: 1.56 mg/kg/injection, schedule: Q01DX009 (ip), vehicle: water 102 % of control | dose: 3.12 mg/kg/injection, schedule: Q01DX009 (ip), vehicle: water 89 % of control | dose: 3.13 mg/kg/injection, schedule: Q01DX009 (ip), vehicle: water 96 % of control | dose: 6.25 mg/kg/injection, schedule: Q01DX009 (ip), vehicle: water 102 % of control and 105 % of control | dose: 12.5 mg/kg/injection, schedule: Q01DX009 (ip), vehicle: water 119 % of control

CCCCNS(=O)(=O)c1ccc(OC)c(N)c1
inactive: [12] 95 % of control | [13] 95 % of control | [14] 111 % of control

C[C@]12CC[C@H](OC(=O)Cc3ccc(N(CCCl)CCCl)cc3)CC1=CC[C@@H]1[C@@H]2CC[C@]2(C)C(=O)CC[C@@H]12
inactive: [15] 92 % of control | [9] 115 % of control | [16] 97 % of control | [10] 105 % of control | [11] 105 % of control

N/C(=N\N=C\c1ccc(-c2ccccc2)cc1)N[N+](=O)[O-]
inactive: [2] 93 % of control | [3] 90 % of control | [4] 93 % of control | [5] 86 % of control

O=C(/C(=C\c1ccccc1)CN1CCOCC1)c1ccc(Br)cc1
inactive: dose: 12.5 mg/kg/injection, schedule: Q01DX009 (ip), vehicle: saline with Tween-80 91 % of control | dose: 25.0 mg/kg/injection, schedule: Q01DX009 (ip), vehicle: saline with Tween-80 94 % of control | [17] 94 % of control | [15] 89 % of control

CC(C)(C)OC(=O)n1cnc(CC(NC(=O)OCc2ccccc2)C(=O)O)c1 (configuration not stated)
inactive: [17] 98 % of control | [15] 89 % of control | [16] 92 % of control

CCCN(C)/N=N/c1[nH]ncc1C(N)=O
inactive: dose: 17.0 mg/kg/injection, schedule: Q01DX009 (ip), vehicle: saline with Tween-80 114 % of control | dose: 37.0 mg/kg/injection, schedule: Q01DX009 (ip), vehicle: saline with Tween-80 111 % of control | [17] 121 % of control

O=S(=O)([O-])NC1CCCCC1.O=S(=O)([O-])NC1CCCCC1.[Hg+2].[Hg+2].[Hg+2].[O-2].[O-2]
inactive: dose: 0.12 mg/kg/injection, schedule: Q01DX009 (ip), vehicle: saline 98 % of control | dose: 0.25 mg/kg/injection, schedule: Q01DX009 (ip), vehicle: saline 105 % of control | dose: 0.5 mg/kg/injection, schedule: Q01DX009 (ip), vehicle: saline 98 % of control | dose: 1.0 mg/kg/injection, schedule: Q01DX009 (ip), vehicle: saline 90 % of control

Cc1ccc(Oc2ccc3cc[n+](C)cc3c2)cc1
inactive: dose: 6.25 mg/kg/injection, schedule: Q01DX009 (ip), vehicle: saline 98 % of control | dose: 12.5 mg/kg/injection, schedule: Q01DX009 (ip), vehicle: saline 100 % of control | dose: 25.0 mg/kg/injection, schedule: Q01DX009 (ip), vehicle: saline 86 % of control

CCCCCCCCCCCCCCCCCC(=O)NCNC(=O)CCCCCCCCCCCCCCCCC
inactive: dose: 2.5 mg/kg/injection, schedule: Q01DX009 (ip), vehicle: saline with Tween-80 102 % of control | dose: 4.68 mg/kg/injection, schedule: Q04DX003 (ip), vehicle: saline with Tween-80 86 % of control | [7] 100 % of control | dose: 9.37 mg/kg/injection, schedule: Q04DX003 (ip), vehicle: saline with Tween-80 97 % of control | [8] 87 % of control

OC(Cc1nc(-c2ccccc2)c(-c2ccccc2)s1)(C(F)(F)F)C(F)(F)F
inactive: [9] 105 % of control | [10] 86 % of control

COC(=O)CNc1ccc(S(=O)(=O)c2ccc(N)cc2)cc1
inactive: [4] 103 % of control | [5] 106 % of control | [6] 120 % of control

O=CNC(Cc1ccccc1)Cc1ccccc1
inactive: [1] 96 % of control | dose: 10.0 mg/kg/injection, schedule: Q01DX009 (ip), vehicle: Klucel (hydroxypropylcellulose) (HPC) 100 % of control | dose: 20.0 mg/kg/injection, schedule: Q01DX009 (ip), vehicle: Klucel (hydroxypropylcellulose) (HPC) 100 % of control

CCCC(=O)c1ccc(OC)c(OC)c1
inactive: [3] 86 % of control | [4] 93 % of control | [5] 96 % of control

C[C@H](N)C(=O)N[C@@H]1[C@H]2C(=C(O)C[C@@H](O)[C@@H]2O)C(=O)O[C@@H]1C
inactive: dose: 150.0 mg/kg/injection, schedule: Q01DX009 (ip), vehicle: saline 100 % of control | dose: 300.0 mg/kg/injection, schedule: Q01DX009 (ip), vehicle: saline 102 % of control | dose: 600.0 mg/kg/injection, schedule: Q01DX009 (ip), vehicle: saline 106 % of control | dose: 1200.0 mg/kg/injection, schedule: Q01DX009 (ip), vehicle: saline 116 % of control

O=NN(CCBr)C(=O)NC1CCCCC1
inactive: dose: 100.0 mg/kg/injection, schedule: Q01DX009 (ip), vehicle: gum acacia 105 % of control | dose: 200.0 mg/kg/injection, schedule: Q01DX009 (ip), vehicle: gum acacia 102 % of control | dose: 400.0 mg/kg/injection, schedule: Q01DX009 (ip), vehicle: gum acacia 90 % of control

COc1cc(O)c2c(c1)C(=O)c1cc3c(c(O)c1C2=O)C(OC1OC(C)C(O)C(O)C1OC)C(OC)C(C)(O)C3=O (configuration not stated)
inactive: [3] 117 % of control | [4] 96 % of control

CCCCCCCCCCCCOCCOCCOCC(N)=O
inactive: dose: 100.0 mg/kg/injection, schedule: Q01DX009 (ip), vehicle: saline 112 % of control | dose: 200.0 mg/kg/injection, schedule: Q01DX009 (ip), vehicle: saline 109 % of control | dose: 400.0 mg/kg/injection, schedule: Q01DX009 (ip), vehicle: saline 90 % of control
